This note sets out measurements from paper PMC3214022, “Plasmodium falciparum Parasites Are Killed by a Transition State Analogue of Purine Nucleoside Phosphorylase in a Primate Animal Model” (PLoS ONE, 2011).

The test system of this assay is P. falciparum cultures. The assay can be described thus: Inosine and hypoxanthine rescue assay. The assay is classed as cell-based, Plasmodium falciparum. To be noted: 15 µM BCX4945, hypoxanthine or inosine up to 200 µM, 72 h. As to the method: Synchronized, schizont stage parasites were washed in purine-free medium to remove excess hypoxanthine and inoculated into freshly drawn erythrocytes that had been washed and resuspended in purine-free medium. The schizont stage parasites were cultured in purine-free medium for 24 h to further reduce hypoxanthine inside the cell. […] Parasite viability was determined by DNA quantitation as described by Quashie and colleagues. For each condition, two independent experiments were carried out in triplicate.

As to `Nc1nc2c(CN3CC(O)C(CO)C3)c[nH]c2c(=O)[nH]1` (stereo not shown) [BCX4945, 4′-deaza-1′-aza-2′-deoxy-1′-(9-methylene)-Immucillin-G], the “rescue of growth by purine supplementation” value was “Hypoxanthine, but not inosine, can bypass PNP inhibition”.
